Reference: patent US9993505B2, “Innervation of engineered structures” (WAKE FOREST UNIVERSITY HEALTH SCIENCES, priority 2012, dated 2018)

Assays:
[1] = tested on: intrinsically innervated internal anal sphincter (IAS) smooth muscle construct; assay: Real time force generation of bioengineered IAS construct, initially intrinsically innervated (Example 1); format: cell-based, rabbit
[2] = tested on: initially non-innervated internal anal sphincter (IAS) smooth muscle construct; assay: Real time force generation of bioengineered IAS construct, initially non-innervated, placed 1 mm away from the innervated construct (Example 1); format: cell-based, rabbit
[3] = tested on: intrinsically innervated rabbit colon circular smooth muscle construct; assay: Real time force generation of bioengineered colon smooth muscle construct, intrinsically innervated (Example 2); format: cell-based
[4] = tested on: initially non-innervated rabbit colon circular smooth muscle construct; assay: Real time force generation of bioengineered colon smooth muscle construct, initially non-innervated (Example 2); format: cell-based

`CN1[C@@H]2CC[C@H]1C[C@@H](OC(=O)C(CO)c1ccccc1)C2` (some centres unmarked) [atropine] was tested, and the “inhibition of acetylcholine-induced force generation by pre-treatment” value [1] was 90% and the “inhibition of acetylcholine-induced force generation by pre-treatment” value [2] was 75%.
In the case of vasoactive intestinal peptide [VIP], the “maximal relaxation induced by VIP” value ([3]; 1 μM VIP, innervated colon constructs) is reported as 145±15 μN and the “maximal relaxation induced by VIP” value ([4]; 1 μM VIP, non-innervated colon constructs) is reported as 120±18 μN.
In the case of `NC1=N[C@H](O)[C@H]2[C@H]3O[C@]4(O)O[C@@H]([C@@H](O)[C@@]2(N1)[C@@H]4O)[C@]3(O)CO` [TTX, tetrodotoxin], the “inhibition of EFS-induced relaxation by pre-treatment” value [1] is reported as “completely inhibited”, the “inhibition of acetylcholine-induced force generation by pre-treatment” value [1] is reported as 58% and the “inhibition of EFS-induced relaxation by pre-treatment” value [2] is reported as “completely inhibited”. The “inhibition of acetylcholine-induced force generation by pre-treatment” value [2] was 40%, the “attenuation of peak maximal Ach contraction in the presence of TTX” value [3] was 50-60% and the “effect of TTX preincubation on response to EFS” value [3] was “completely abolished”. The “inhibition of VIP-induced relaxation in the presence of TTX” value [3] was 60%, the “effect of TTX on EFS-induced relaxation” value [4] was “completely blocked” and the “effect of TTX on maximal Ach contraction” value [4] was “reduced the maximal contraction”. The “inhibition of VIP-induced relaxation in the presence of TTX” value [4] was 50%.
With `[Cl-].[K+]` [KCl, potassium chloride] the “average contraction induced by KCl” value [3] was 300±24 μN and the “average contraction induced by KCl” value [4] was 224±42 μN.
For `CC(=O)OCC[N+](C)(C)C` [Acetylcholine, acetylcholine], the “force generation induced by acetylcholine” value ([1]; Acetylcholine 1 μM, day 20, innervated IAS construct) was 153 μN, the “force generation induced by acetylcholine” value ([2]; Acetylcholine 1 μM, day 20, initially non-innervated IAS construct) was 80 μN and the “average contraction induced by Ach” value ([3]; 1 μM Ach, innervated colon constructs) was 150±24 μN. For the same compound, the “average contraction induced by Ach” value ([4]; 1 μM Ach, non-innervated colon constructs) was 130±28 μN.
